# Measured values reported in US20110009332A1, “Therapeutic Treatment Of Wounds” (SOUTHWEST RESEARCH INSTITUTE, priority 2009, published 2011).
# “Also recorded” adds a separate entry of the source. Where a SMILES comes first, the peptide text is derived from it. The star is where a group is joined. Cbz = O=C(OCc1ccccc1)*; OtBu = CC(C)(C)O*
# Assays:
# BMP-2 = BMP-2 gene expression (qPCR, normalized over 18S) in human dermal fibroblasts; type: cell-based
# Procedure: An examination of gene expression of BMP-2 was conducted using a number of proteasome inhibitors including, proteasome inhibitor-1, curcumin, MG-132 and bortezomib. Human neonatal dermal fibroblasts (AllCells, Catalog No. HN006001) were maintained in Dulbecco's modified Eagle's medium (DMEM) supplemented with 10% fetal bovine serum. Early passage cells were plated at 2×10^4 cells/cm^2 and grown in humidified 5% CO2 at 37° C. for 24 hours. Spent media was replaced the following day with assay media including Proteasome inhibitor-1 was added in DMEM at 1 μM and 0.1 μM. Untreated cells were used as the control group. For the human osteogenesis PCR array, the experimental group was treated only at 1 μM.
# Phenol-chloroform extraction was performed to isolate the total RNA for real time polymerase chain reaction array. More specifically, the total RNA was prepared using TRI REAGENT (Ambion, product number 9738), wherein the total RNA was obtained from the human neonatal dermal fibroblasts. Note that isolation was performed as per the instructions provided with the TRI REAGENT. The RNA was used for subsequent quantitative polymerase chain reaction (qPRC) gene expression of BMP-2 measured using hydrolysis probes (TAQMAN probes available from Applied Biosystems) as described further below.
# Concentration and integrity of the obtained total RNA was assessed by absorbance in a spectrophotometer at 260 nm and 280 nm and by electrophoresis in 1% agarose with formaldehyde loading dye. For TAQMAN gene expression assays, cDNA was synthesized from 2 μg of total RNA using the High Capacity cDNA Reverse Transcription Kit (Applied Biosystems, product number 4368814), again following the protocol supplied with the kit. The resulting cDNA was diluted 1:10.
# For TAQMAN gene expression, gene-specific fluorescent labeled TAQMAN primers for FAM-BMP2 (Applied Biosystems, product number Hs00154192.m1) and TAQMAN reference VIC-18S ribosomal RNA (Applied Biosystems, product number 4310893E) were used to target the gene of interest. A cocktail of universal master mix (Applied Biosystems, product number 4369016) was prepared individually for both set of primers which contained Taq Polymerase, dNTPs, and buffer. Template cDNA's were added separately to respective individual wells in triplicate samples. PCR was performed on StepOne Plus Real Time System instrument (Applied Biosystems). The amplification program consisted of 1 cycle of 95° C. with 10 minute hold (hot start) followed by 50 cycles of 95° C. with 15 second annealing hold and 1 minute 60° C. specified acquisition hold.
# For human osteogenisis PCR array, total RNA was prepared using silica matrix purification using RNEASY MINI KIT (Qiagen, product number 74101) according to the manufacturer's recommendations. cDNA was synthesized from 1 μg of purified DNA-free RNA accordingly to RT^2First Strand Kit (SABiosciences, C-03). The resulting cDNA was diluted 1:30 and amplified. The procedure for the PCR array using real-time PCR is based on the RT^2 Profiler PCR array system instructions for Human Osteogenesis (SABiosciences, product number PAHS-026C). A cocktail reaction mix was setup as recommended by the PCR manufacturer (SABiosceiences, product number PA-012). PCR was performed using the same temperature parameters as used with the StepOne Plus Real Time System instrument. The Ct value of endogenous reference gene (i.e. 18s) was used to control for input RNA and then used to normalize target gene (i.e. BMP-2) tested from the same cDNA sample (Δ Ct), and then calibrated to an internal reference sample (ΔΔCt). Change in gene expression was determined by the expression 2̂-(ΔΔCt).
# In addition, as alluded to above a similar methodology using 10 μmM and 100 μM of curcumin, 0.1 μM and 1 μM of bortezomib, and 0.1 μM and 1 μM of MG-132 proteasome inhibitors was performed.
# EFT400-Epidermis = assay: Skin thickness upon addition of PS-1 (EPIDERMFT EFT-400 tissue samples, in vitro); type: cell-based; conditions: for EFT400-Epidermis thickness, Trial 1: control 61; for EFT400-Epidermis thickness, Trial 3: control 66.22; for EFT400-Epidermis thickness, Trial 2: control 73.73
# Procedure: Tissue samples were received and equilibrated for treatment. Media was retained for enzyme-linked immunosorbent assay (ELISA) using an EPIDERMFT kit, product number EFT-400. On the second day, PS-1 treatment was added to the samples, wherein the media was exchanged with compound in 4 ml. More specifically, three samples were maintained as control samples and included DMSO at a concentration of 62 μm/10 ml, with no added PS-1 treatment, 0.1 μM (0.620/10 ml) was added to three samples, 1 μM (0.620/10 ml) was added to three samples, and 10 μM (0.620/10 ml) was added to three samples.
# The samples were left to incubate on days 3-5 and on day 6, the media was exchanged again. On the seventh day, tissue samples were removed and conditioned media was saved for ELISA. The samples were then measured using […].
# FIG. 2 illustrates changes in the epidermis thickness versus the amount of PS-1 added to the assays and the supporting data is presented in Table 1 below. […] FIGS. 3 through 5 illustrate the difference in thickness as between the control samples and the 10 μl/ml samples at 10× magnification and 40× magnification.
# 20S proteasomes = 20S proteasomes (Homo sapiens, UniProt P28074); assay: Inhibition of 20S proteasome enzyme activity; type: biochemical; conditions: 0 nM to 10,000 nM, FIGS. 7-9
# Procedure: The IC50 may be understood as the amount of a particular substance/molecule needed to inhibit a given biological process in vitro by 50% and may be an indicator of the potency of a compound. The activity of the proteasome may be quantified by measuring the amount of fluorescence produced by cleavage of a fluorogenic substrate, such as LLVY-AMC, which when released by proteasomal cleavage, may emit fluorescent light.
# The enzyme activity of 20S proteasomes was measured upon increasing addition of the proteasome inhibitors PS-1, curcumin and genestein in concentrations ranging from 0 nM to 10,000 nM. In particular, FIG. 7 illustrates the inhibition of 20S proteasomes upon the addition of PS-1. […] FIG. 8 illustrates the inhibition of the 20S proteasomes upon the addition of curcumin. […] FIG. 9 illustrates the inhibition of the 20S proteasomes upon the addition of genestein.
# [1] = 0.1 μM inhibitor, FIG. 24, non-treated approximately 1.50
# [2] = 1 μM inhibitor, FIG. 24, non-treated approximately 1.50
structure (smiles),measurement,setting,value
CC(C)C[C@@H](C=O)NC(=O)[C@H](CC(C)C)NC(=O)[C@H](CC(C)C)NC(=O)OCc1ccccc1 [MG132] (Cbz-Leu-Leu-Leu-aldehyde),BMP-2/18S mRNA levels,BMP-2; [1],5.95 a.u.
same,BMP-2/18S mRNA levels,BMP-2; [2],approximately 9.51 a.u.
"CC[C@H](C)[C@H](NC(=O)OCc1ccccc1)C(=O)N[C@@H](CCC(=O)OC(C)(C)C)C(=O)N[C@@H](C)C(=O)N[C@H](C=O)CC(C)C [PS-1, Z-Ile-Glu(OBu^t)-Ala-Leu-H] (Cbz-IE(OtBu)AL-aldehyde)","EFT400-Epidermis thickness, Trial 1",EFT400-Epidermis; 0.1 μM PS-1,69.47 microns
same,"EFT400-Epidermis thickness, Trial 3",EFT400-Epidermis; 0.1 μM PS-1,78.82 microns
same,"EFT400-Epidermis thickness, Trial 2",EFT400-Epidermis; 0.1 μM PS-1,61.85 microns
same,"EFT400-Epidermis thickness, Trial 1",EFT400-Epidermis; 1 μM PS-1,59.13 microns
same,"EFT400-Epidermis thickness, Trial 3",EFT400-Epidermis; 1 μM PS-1,61.6 microns
same,"EFT400-Epidermis thickness, Trial 2",EFT400-Epidermis; 1 μM PS-1,54.09 microns
same,"EFT400-Epidermis thickness, Trial 1",EFT400-Epidermis; 10 μM PS-1,106.31 microns
same,"EFT400-Epidermis thickness, Trial 3",EFT400-Epidermis; 10 μM PS-1,100.16 microns
same,"EFT400-Epidermis thickness, Trial 2",EFT400-Epidermis; 10 μM PS-1,96.2 microns
same,thickness of the resultant epidermis in vitro (in words),"EFT400-Epidermis; addition of 10 μm, compared with the other samples",relatively significant increase in the thickness
same,stratum granulosum formation (in words),"EFT400-Epidermis; treated samples vs control samples, FIGS. 3-5",relatively well formed stratum granulosum; also recorded: relatively better developed stratum granulosum
same,enzyme activity of 20S proteasomes with increasing inhibitor concentration (in words),20S proteasomes,enzyme activity decreased
same,BMP-2/18S mRNA levels,"BMP-2; 0.1 μm PS-1, FIG. 22, non-treated control approximately 1.38",9.01 au
same,BMP-2/18S mRNA levels,"BMP-2; 1.0 μm PS-1, FIG. 22, non-treated control approximately 1.38",12.5 au
CC(C)C[C@H](NC(=O)[C@H](Cc1ccccc1)NC(=O)c1cnccn1)B(O)O [bortezomib],BMP-2/18S mRNA levels,BMP-2; [1],6.55 a.u.
same,BMP-2/18S mRNA levels,BMP-2; [2],9.68 a.u.
COc1cc(/C=C/C(=O)CC(=O)/C=C/c2ccc(O)c(OC)c2)ccc1O [curcumin],enzyme activity of 20S proteasomes with increasing inhibitor concentration (in words),20S proteasomes,shown to decrease as well
same,BMP-2/18S mRNA levels,"BMP-2; 10 μM curcumin, FIG. 23, non-treated approximately 1.38",2.87 a.u.
same,BMP-2/18S mRNA levels,"BMP-2; 100 μM curcumin, FIG. 23, non-treated approximately 1.38",0.903 a.u.
